One data set in a line: in vitro. Conditions: pig.
Data set [1] concerns Pseudorabies virus (Ra strain). The data set is described as follows: microbe, parasite or virus in culture. In kind it is cell-based.
Data set [2] concerns cGAS/STING signaling pathway. In kind it is cell-based, pigs.
The next data set has as its system cGAMP production. In kind it is cell-based, pigs.
Data set [3] relates to IRF3 phosphorylation (cGAS/STING signaling pathway). In kind it is cell-based, pigs.
A further data set has as its system p-IRF3. In kind it is cell-based, pigs.
Data set [4] concerns JAK/STAT signaling pathway. In kind it is cell-based, pigs.
The subject of data set [5] is JAK/STAT signaling pathway. In kind it is cell-based, pigs. The source holds these as a separate data set.
In another data set the test system is IFN-β promoter. In kind it is cell-based.
Data set [6] deals with cGAS/STING signaling pathway. In kind it is cell-based.
Data set [7] relates to PRV. Details: species or system mice. Conditions: mouse, in vivo.
In data set [8] the test system is type I interferon signaling pathway. Also noted: species or system mice. The note with it: mouse, in vivo.
Data set [9] shares this test system. Details: species or system mice. Conditions: mouse, in vivo. The source holds these as a separate data set.
Another data set relates to IFN-β. Details: species or system mice. Conditions: mouse, in vivo.
Data set [10] deals with PRV. The note with it: mouse, in vivo; cited from earlier work.
The mark [11] stands for this setting: Suid alphaherpesvirus 1, PK-15, 1 h.

Where two headings read alike, the source gives them in different places.

As for `COc1cc2c(cc1OC)-c1cc3ccc(OC)c(OC)c3c[n+]1CC2` [Palmatine], the CC50 in the data set on PK-15 cells was 1250 µM.
`COc1ccc(-c2coc3cc(O)ccc3c2=O)cc1` [Formononetin] returned a CC50 in “in vitro” of 228 µM.
Still for that read-out and setting: next, `O=c1c2cc(O)c(O)cc2oc2cc(O)c([C@@H]3O[C@H](CO)[C@@H](O)[C@H](O)[C@H]3O)c(O)c12` [Mangiferin]: greater than 1050 µM.
For `Oc1ccc(/C=C/c2cc(O)cc(O)c2)cc1` [resveratrol], the IC50 in data set [1] (setting [11]) fell in the range of 23.2 to 323 µM.
On the same count and under the same terms, the same measure for `CC1(C)[C@@H](O[C@H]2O[C@H](C(=O)O)[C@@H](O)[C@H](O)[C@H]2O[C@@H]2O[C@H](C(=O)O)[C@@H](O)[C@H](O)[C@H]2O)CC[C@]2(C)[C@H]3C(=O)C=C4[C@@H]5C[C@@](C)(C(=O)O)CC[C@]5(C)CC[C@@]4(C)[C@]3(C)CC[C@@H]12` [glycyrrhizic acid]: 23.2 to 323 µM.
`O=c1c(O)c(-c2ccc(O)c(O)c2)oc2cc(O)cc(O)c12` [Quercetin]: the CC50 worked out at 890 µM with PK-15 cells (pig) and 449 µM in “in vitro”.
`O=c1c(O)c(-c2ccc(O)cc2)oc2cc(O)cc(O)c12` [Kaempferol] returned an IC50 in data set [1] (setting [11]) of 25.6 µM. Moreover, the CC50 in “in vitro” was found to be 255 µM.
For `O=C1c2c(O)cc(O)cc2O[C@H](c2cc(O)c(O)c(O)c2)[C@H]1O` [Dihydromyricetin] the same measures were 161 µM and 914 µM.
As to `OC[C@H]1O[C@@H](Oc2cc(O)cc(/C=C/c3ccc(O)cc3)c2)[C@H](O)[C@@H](O)[C@@H]1O` [Polydatin], the CC50 in “in vitro” was greater than 466 µM.
Same read-out and setting: the same measure for `O=C(O)[C@H]1O[C@@H](Oc2cc3oc(-c4ccc(O)cc4)cc(=O)c3c(O)c2O)[C@H](O)[C@@H](O)[C@@H]1O` [Scutellarin]: greater than 213 µM.
Pueraria yielded a CC50 in the data set on PK-15 cells greater than 461 µM.
`O=c1c(O)c(-c2ccc(O)c(O)c2)oc2cc(O)ccc12` [Fisetin]: the IC50 entry in data set [1] was “–^b”. This compound displayed a CC50 in the data set “in vitro” of 717 µM.
`O=c1cc(-c2ccccc2)oc2cc(O)cc(O)c12` [Chrysin] gave a CC50 in “in vitro” of 107 µM.
As to `O=C1C[C@@H](c2ccc(O)cc2)Oc2cc(O)ccc21` [Liquiritigenin], in data set [1] (read-out: IC50), the IC50 is 323 µM. Besides, the CC50 in the data set with PK-15 cells was found to be 790 µM.
Regarding `C[C@@H]1O[C@@H](OC[C@H]2O[C@@H](Oc3c(-c4ccc(O)c(O)c4)oc4cc(O)cc(O)c4c3=O)[C@H](O)[C@@H](O)[C@@H]2O)[C@H](O)[C@H](O)[C@H]1O` [Rutin], the CC50 in the data set “in vitro” is greater than 389 µM.
In the case of `O=C1C[C@@H](c2ccc(O)cc2)Oc2cc(O)cc(O)c21` [Naringenin], in data set [2], the “mRNA expression level of cGAS” value is listed as “significantly enhance”, the “mRNA level of IRF3” value is listed as “no discernible differences” and the “mRNA levels of IFN-β” value is given as “significantly elevate”.
The compound `COc1ccc(-c2oc3c(CC=C(C)C)c(O[C@@H]4O[C@H](CO)[C@@H](O)[C@H](O)[C@H]4O)cc(O)c3c(=O)c2O[C@@H]2O[C@@H](C)[C@H](O)[C@@H](O)[C@H]2O)cc1` [Icariin] returned a CC50 in “in vitro” greater than 382 µM.
With `O=c1cc(-c2ccccc2)oc2cc(O)c(O)c(O)c12` [Baicalein], the IC50 in data set [1] (read-out: IC50) came out at 291 µM. In data set [2], the “mRNA expression level of cGAS” value is given as “significantly enhance”, the “mRNA level of IRF3” value is listed as “no discernible differences”, the “mRNA level of STING” value is “significantly increase” and the “mRNA levels of IFN-β” value is on record as “significantly elevate”. Moreover, in the data set on PK-15 cells, the CC50 came to 563 µM.
In data set [1] (setting [11]), `O=c1c(O)c(-c2cc(O)c(O)c(O)c2)oc2cc(O)cc(O)c12` [Myricetin] came in with an IC50 of 42.7 µM. Further, in data set [2], the “mRNA expression level of cGAS” value was “significantly enhance”, the “mRNA level of IRF3” value is recorded as “significantly increase”, the “mRNA level of STING” value was “significantly increase” and the “mRNA levels of IFN-β” value is given as “significantly elevate”. In addition, the “mRNA levels of cGAS, STING, TBK1, IRF3, IRF7 and IFN-β” value in [2] was “all increased”. In addition, the “increase in cGAMP production compared with the blank group” value in the data set on cGAMP production is roughly 1.5 fold. In [3], the “levels of p-IRF3 and p-IRF3/IRF3” value is “significantly elevated”. Also, the “total amount of IRF3 phosphorylation (fluorescence intensity)” value in the data set on p-IRF3 was “significant enhancement”. Besides, the “transcriptional levels of JAK1, STAT1, IRF9, ISG15, ISG56 and ISG54” value in data set [4] was “notable elevation”. In data set [5], the “effect proteins ISG15 and OAS1” value is “significantly increased”; the “protein levels of STAT1, p-STAT1 and p-STAT1/STAT1” value is on record as “significantly higher”. Moreover, in the data set with IFN-β promoter, the “expression level of the IFN-β promoter, ratio to infected control group” value is roughly 2 fold. For the same compound, in data set [6], the “protein expressions of cGAS, STING, TBK1, IRF3 and p-IRF3” value is “significantly increase”. Besides, the “mortality rate at 4 dpi” value with PRV [7] was determined as 70%. The “transcriptional levels of cGAS, STING, TBK1, IRF3, IRF7, IFN-β, ISG56 and ISG54 in heart, liver, spleen, lung and kidney” value in data set [8] is “significantly higher”. Besides, the “expression levels of antiviral effectors MX1, OAS1 and ISG15 in brain and kidney” value in data set [9] is reported as “higher expression levels”. Further, in the data set on IFN-β, the “production of IFN-β in tissues (ELISA)” value was “significantly promote”. Also, in the data set with PRV [10], the “mortality rate at 4 dpi” value is 0%, the “mortality rate at 5 dpi” value was 30% and the “reduction in viral copies in the kidney” value is “up to 80 fold”. The compound further gave a CC50 in “in vitro” greater than 1000 µM.
The compound `COc1ccc([C@@H]2CC(=O)c3c(O)cc(O[C@@H]4O[C@H](CO)[C@@H](O)[C@H](O)[C@H]4O[C@@H]4O[C@@H](C)[C@H](O)[C@@H](O)[C@H]4O)cc3O2)cc1O` [Neohesperidin] gave a CC50 with PK-15 cells greater than 1000 µM.
On the same count and under the same terms, next, `COc1ccc([C@@H]2CC(=O)c3c(O)cc(O[C@@H]4O[C@H](CO[C@@H]5O[C@@H](C)[C@H](O)[C@@H](O)[C@H]5O)[C@@H](O)[C@H](O)[C@H]4O)cc3O2)cc1O` [Hesperidin]: greater than 238 µM.
On to `O=c1cc(-c2ccc(O)c(O)c2)oc2cc(O)cc(O)c12` [Lutelin], for which, in data set [1] (setting [11]), it took 36.9 µM to reach half-maximal inhibition (IC50). Besides, in data set [2], the “mRNA expression level of cGAS” value is given as “significantly enhance”, the “mRNA level of IRF3” value is “no discernible differences” and the “mRNA level of STING” value is given as “significantly increase”. Besides, in “in vitro”, the CC50 was found to be 195 µM.
As to `COc1ccc(-c2coc3cc(O)cc(O)c3c2=O)cc1` [Biochanin A], in the data set with PK-15 cells, the CC50 worked out at 382 µM.
With `COc1cc(C2Oc3cc([C@H]4Oc5cc(O)cc(O)c5C(=O)[C@@H]4O)ccc3OC2CO)ccc1O` (some centres unmarked) [Silibinin], in [1] (setting [11]), the midpoint of inhibition, the IC50, lay at 203 µM. This compound returned a CC50 in the data set “in vitro” of 392 µM.

A word on the IC50: it is the concentration that gives 50% inhibition.

The values are drawn from article PMC11784099 (Journal of Virology, 2024).
